In the assay the test system is monoclonal antibody specific for the N-terminal region of GLP-1 (7-37). As to the kind of experiment: Cross reactivity of the RIA antibody used to determine plasma concentrations. The class given is binding. The note with it: RIA at 4°C. The protocol: The entire procedure was carried out at 4°C.
The assay was carried out as follows: 100 µl plasma was mixed with 271 µl 96% ethanol, mixed using a vortex mixer and centrifuged at 2600*g for 30 min. The supernatant was decanted into Minisorp tubes and evaporated completely (Savant Speedvac AS290). The evaporation residue was reconstituted in the assay buffer consisting of 80 mM NaH2PO4/Na2HPO4, 0.1 % HSA (Orpha 20/21, Behring), 10 mM EDTA, 0.6 mM thiomersal (Sigma), pH 7.5. Samples were reconstituted in volumes suitable for their expected concentrations, and were allowed to reconstitute for 30 min. To 300 µl sample, 100 µl antibody solution in dilution buffer containing 40 mM NaH2PO4/Na2HPO4, 0.1 % HSA, 0.6 mM thiomersal, pH 7.5, was added. A non-specific sample was prepared by mixing 300 µl buffer with 100 µl dilution buffer. Individual standards were prepared from freeze dried stocks, dissolved in 300 µl assay buffer. All samples were pre-incubated in Minisorp tubes with antibody as described above for 72 h. […] Immediately after the centrifugation, the supernatant was decanted and counted in a γ-counter. The concentration in the samples was calculated from individual standard curves. Plasma concentrations were found, calculated as % of the maximum concentration for the individual compounds (n=2).

“GLP-1 (1-37) (HDEFERHAEGTFTSDVSSYLEGQAAKEFIAWLVKGRG; Glucagon-like peptide 1; UniProt P01275 92-128, looked up, fragment)”: the cross reactivities result is listed as “less than 1%”.

The record behind these values is patent EP1840134B1 (NOVO NORDISK A/S, priority 1998, dated 2016).
